# Test results as given in ChEMBL document CHEMBL6078680, “Improving the Stability and Anti-Infective Activity of Sea Turtle AMPs Using Multiple Structural Modification Strategies” (J Med Chem, 2024).
# Calls of active or inactive are those of the source. The rule behind the calls is not given here. Positions of bridges follow the written chain, without caps; N, C: chain ends. Residues, ends and D or L forms follow the SMILES beside them.
# Legend:
# Enterococcus faecium = assay: Antimicrobial activity against Enterococcus faecium 34 assessed as reduction in microbial growth incubated for 18 hrs by broth microdilution method; format: functional
# Escherichia coli [1] = assay: Antimicrobial activity against Escherichia coli CMCC44102 assessed as reduction in microbial growth incubated for 18 hrs by broth microdilution method; format: functional
# Pseudomonas aeruginosa = assay: Antimicrobial activity against Pseudomonas aeruginosa CMCC10104 assessed as reduction in microbial growth incubated for 18 hrs by broth microdilution method; format: functional
# Salmonella enteritidis = assay: Antimicrobial activity against Salmonella enterica subsp. enterica serovar Enteritidis ATCC 14028 assessed as reduction in microbial growth incubated for 18 hrs by broth microdilution method; format: functional
# Staphylococcus aureus [2] = assay: Antimicrobial activity against Staphylococcus aureus CMCC 26003 assessed as reduction in microbial growth incubated for 18 hrs by broth microdilution method; format: functional
# Clostridium perfringens = assay: Antimicrobial activity against Clostridium perfringens ATCC 13124 assessed as reduction in microbial growth incubated for 18 hrs by broth microdilution method; format: functional
# Enterococcus faecalis = assay: Antimicrobial activity against Enterococcus faecalis ATCC 29217 assessed as reduction in microbial growth incubated for 18 hrs by broth microdilution method; format: functional
# [3] = tested on: Staphylococcus epidermidis; assay: Antimicrobial activity against Staphylococcus epidermidis assessed as reduction in microbial growth incubated for 18 hrs by broth microdilution method; format: functional
# Staphylococcus aureus [4] = assay: Antimicrobial activity against Staphylococcus aureus 08032706 assessed as reduction in microbial growth incubated for 18 hrs by broth microdilution method; format: functional
# [5] = Hemolytic activity at human Erythrocyte assessed as hemolysis at 100 microg/ml; format: toxicity, cell-based; conditions: erythrocytes, at 100 µg/mL, read-out: Activity
# Peritoneal macrophage = assay: Antiinflammatory activity in mouse Peritoneal macrophage cells assessed as inhibition of LPS-induced IL-6 production at 20 microg/ml incubated for 6 hrs by ELISA analysis; format: functional, cell-based; conditions: dose 20.0 µg/ml
# Staphylococcus aureus [6] = assay: Antimicrobial activity against Staphylococcus aureus CMCC 26003 at 5 times MIC measured at 180 mins; format: functional, organism-based
# Acinetobacter baumannii [7] = assay: Drug resistance, ratio of MIC for Acinetobacter baumannii ATCC1960 after 40 passages to MIC for Acinetobacter baumannii ATCC1960 during first exposure; format: functional
# Escherichia coli [8] = assay: Drug resistance, ratio of MIC for Escherichia coli ATCC 25922 after 40 passages to MIC for Escherichia coli ATCC 25922 during first exposure; format: functional
# Staphylococcus aureus [9] = assay: Antibiofilm activity against Staphylococcus aureus CMCC 26003 assessed as inhibition of biofilm formation incubated for 48 hrs by crystal violet staining based analysis; format: functional, organism-based
# Staphylococcus aureus [10] = assay: Antibiofilm activity against Staphylococcus aureus CMCC 26003 assessed as biofilm eradication incubated for 24 hrs by crystal violet staining based analysis; format: functional, organism-based
# Acinetobacter baumannii [11] = assay: Antibiofilm activity against Acinetobacter baumannii ATCC 19606 assessed as biofilm eradication incubated for 24 hrs by crystal violet staining based analysis; format: functional, organism-based
# Staphylococcus aureus [12] = assay: Antibiofilm activity against Staphylococcus aureus CMCC 26003 assessed as reduction in biofilm formation at 0.5 times MIC incubated for 24 hrs by crystal violet staining based analysis; format: functional; parameters: scale not given: the % may be the effect or the level left
# Staphylococcus aureus [13] = assay: Antibiofilm activity against Staphylococcus aureus CMCC 26003 assessed as biofilm eradication at 8 times MIC incubated for 24 hrs by crystal violet staining based analysis; format: functional
# Acinetobacter baumannii [14] = assay: Antipersister-activity against Acinetobacter baumannii ATCC 19606 assessed as elimination of persister cells at 50 times MIC preincubated adherent persistent cells with colistin incubation for 24 hrs; format: functional
# Cell membrane [15] = assay: Disruption of cell membrane integrity in Escherichia coli ATCC 25922 assessed as cell membrane damage at 5 times MIC measured after 30 mins by scanning electron microscopic analysis; format: subcellular
# Cell membrane [16] = assay: Disruption of cell membrane integrity in Staphylococcus aureus CMCC 26003 assessed as cell membrane damage at 5 times MIC measured after 30 mins by scanning electron microscopic analysis; format: subcellular
# Staphylococcus aureus [17] = assay: Antimicrobial activity against Staphylococcus aureus CMCC 26003 assessed as fold increase in MIC incubated for 18 hrs in presence of CCCP; format: functional
# Escherichia coli [18] = assay: Antibacterial activity against Escherichia coli ATCC 25922 assessed as increase in intracellular ROS production at 2 to 5 times MIC by DCFH-DA staining based assay; format: functional, organism-based
# Staphylococcus aureus [19] = assay: Bactericidal activity against Staphylococcus aureus CMCC 26003 assessed as bacterial eradication incubated at 0.5 hrs in presence of thiourea; format: functional, organism-based
# Escherichia coli [20] = assay: Antibacterial activity against Escherichia coli ATCC 25922 at 1 times MIC in presence of exogenous DNA; format: functional, organism-based
# [21] = Acute toxicity in BALB/c mouse assessed as mortality at 10 mg/kg, iv measured for 24 hrs; format: organism-based; conditions: in vivo, read-out: Activity
# [22] = Acute toxicity in BALB/c mouse assessed as mortality at 15 mg/kg, iv measured for 24 hrs; format: organism-based; conditions: in vivo, read-out: Activity
# [23] = Acute toxicity in BALB/c mouse assessed as mortality at 50 mg/kg, iv measured for 24 hrs; format: organism-based; conditions: in vivo, read-out: Activity
# [24] = Acute toxicity in BALB/c mouse assessed as effect on ALT level at 10 mg/kg, iv measured for 24 hrs; format: organism-based; conditions: in vivo
# Acinetobacter baumannii [25] = assay: In vivo antibacterial activity against Acinetobacter baumannii ATCC19606 infected in BALB/c mouse assessed as survival at 15 mg/kg, ip administered for 12 hrs and measured on day 7; format: functional; conditions: for survival at 15 mg/kg: ATCC19606, 168 h, time 7 day
# Acinetobacter baumannii [26] = assay: In vivo antibacterial activity against Acinetobacter baumannii ATCC19606 infected in BALB/c mouse assessed as survival at 15 mg/kg, ip administered for 12 hrs and measured after 3 hrs; format: functional; conditions: time 15 hrs
# Acinetobacter baumannii [27] = assay: In vivo antibacterial activity against Acinetobacter baumannii ATCC19606 infected in BALB/c mouse assessed as reduction in bacterial load at 15 mg/kg, ip; format: functional, organism-based; conditions: time 3.0 hrs
# Acinetobacter baumannii [28] = assay: In vivo antibacterial activity against Acinetobacter baumannii ATCC19606 infected in BALB/c mouse assessed as reduction in bacterial load in liver at 15 mg/kg, ip measured after 3 hrs; format: functional, organism-based
# Acinetobacter baumannii [29] = assay: In vivo antibacterial activity against Acinetobacter baumannii ATCC19606 infected in BALB/c mouse assessed as reduction in bacterial load in lung at 15 mg/kg, ip measured after 3 hrs; format: functional, organism-based
# Acinetobacter baumannii [30] = assay: In vivo antibacterial activity against Acinetobacter baumannii ATCC19606 infected in BALB/c mouse assessed as reduction in bacterial load in lung at 15 mg/kg, ip measured after 12 hrs; format: functional, organism-based
# Acinetobacter baumannii [31] = assay: Antibiofilm activity against Acinetobacter baumannii ATCC 19606 assessed as inhibition of biofilm formation at 0.5 times MIC incubated for 48 hrs by crystal violet staining based analysis; format: functional
# Staphylococcus aureus [32] = assay: Antibiofilm activity against Staphylococcus aureus CMCC 26003 assessed as biofilm eradication at 0.5 to 2 times MIC incubated for 24 hrs by crystal violet staining based analysis; format: functional
# Staphylococcus aureus [33] = assay: Antipersister-activity against Staphylococcus aureus CMCC 26003 assessed as elimination of persister cells at 50 times MIC preincubated adherent persistent cells with colistin incubation for 24 hrs; format: functional
# [34] = Acute toxicity in BALB/c mouse assessed as effect on BUN level at 10 mg/kg, iv measured for 24 hrs; format: organism-based; conditions: in vivo
SMILES,MIC (Enterococcus faecium) [µg/mL],MIC (Escherichia coli [1]) [µg/mL],MIC (Pseudomonas aeruginosa) [µg/mL],MIC (Salmonella enteritidis) [µg/mL],MIC (Staphylococcus aureus [2]) [µg/mL],MIC (Clostridium perfringens) [µg/mL],MIC (Enterococcus faecalis) [µg/mL],MIC [3] [µg/mL],MIC (Staphylococcus aureus [4]) [µg/mL],hemolysis at 100 microg/ml [5] [%],Activity (Peritoneal macrophage),Ratio (Acinetobacter baumannii [7]),Activity (Staphylococcus aureus [9]),Activity (Staphylococcus aureus [10]),Activity (Acinetobacter baumannii [11]),Activity (Staphylococcus aureus [12]) [%],Activity (Acinetobacter baumannii [14]) [%],Activity (Cell membrane [16]),Activity (Escherichia coli [20]),mortality at 24 h [21] [%],other results
CC[C@H](C)[C@H](NC(=O)[C@@H](CCCNC(=N)N)NC(=O)[C@H](CO)NC(=O)[C@H](Cc1c[nH]cn1)NC(=O)[C@@H](CCCNC(=N)N)NC(=O)[C@H](CC(C)C)NC(=O)[C@@H](NC(=O)[C@@H](CCCNC(=N)N)NC(=O)CNC(=O)[C@H](CC(C)C)NC(=O)[C@H](CCC(N)=O)NC(=O)[C@@H](CCCCN)NC(=O)[C@@H](CCCNC(=N)N)NC(=O)[C@@H](NC(=O)[C@@H](CCCCN)NC(=O)[C@@H](CCCCN)NC(=O)[C@@H](N)Cc1ccccc1)C(C)C)C(C)C)C(=O)N[C@H](C(=O)N[C@H](C(=O)NCC(=O)NCC(=O)N[C@H](CCCNC(=N)N)C(=O)N[C@@H](CCSC)C(=O)N[C@H](CCCNC(=N)N)C(=O)N[C@@H](Cc1ccccc1)C(=O)O)C(C)C)[C@@H](C)O,75,18.8,> 100,37.5,75,18.8,37.5,75,75,< 5,Active,1,Active,Active,Active,20,60,Active,Active,0,Activity (Staphylococcus aureus [6]): inactive; Ratio (Escherichia coli [8]): 1; Activity (Staphylococcus aureus [13]): 50%; Activity (Cell membrane [15]): Active; fold change (FC) (Staphylococcus aureus [17]): 32; Activity (Escherichia coli [18]): Active; Activity (Staphylococcus aureus [19]): Active; mortality at 24 h [22]: 0%; mortality at 24 h [23]: 0%; Activity [24]: Non-toxic; Activity (Acinetobacter baumannii [25]; time 7.0 day): Active; Activity (Acinetobacter baumannii [26]): >60%; Activity (Acinetobacter baumannii [27]): Time-dependent-effect; Activity (Acinetobacter baumannii [28]): Active; Activity (Acinetobacter baumannii [29]): Active; Activity (Acinetobacter baumannii [30]): Active
CC[C@H](C)[C@H](NC(=O)[C@H](CCCNC(=N)N)NC(=O)[C@H](CO)NC(=O)[C@H](Cc1c[nH]cn1)NC(=O)[C@H](CCCNC(=N)N)NC(=O)[C@H](CC(C)C)NC(=O)[C@@H](NC(=O)[C@H](CCCNC(=N)N)NC(=O)CNC(=O)[C@H](CC(C)C)NC(=O)[C@H](CCC(N)=O)NC(=O)[C@H](CCCCN)NC(=O)[C@H](CCCNC(=N)N)NC(=O)[C@@H](NC(=O)[C@H](CCCCN)NC(=O)[C@H](CCCCN)NC(=O)[C@@H](N)Cc1ccccc1)C(C)C)C(C)C)C(=O)N[C@H](C(=O)N[C@H](C(=O)NCC(=O)NCC(=O)N[C@@H](CCCNC(=N)N)C(=O)N[C@@H](CCSC)C(=O)N[C@@H](CCCNC(=N)N)C(=O)N[C@@H](Cc1ccccc1)C(=O)O)C(C)C)[C@@H](C)O,18.8,2.34,4.69,1.17,2.34,2.34,4.69,18.8,9.38,< 5,Active,1,Active,Active,Active,20,60,Active,Active,0,inhibition (INH) (Acinetobacter baumannii [31]): 10%; Activity (Staphylococcus aureus [32]): 20%; Activity (Staphylococcus aureus [33]): 50%; Activity (Escherichia coli [18]): Active; Activity (Staphylococcus aureus [19]): Active; mortality at 24 h [22]: 0%; mortality at 24 h [23]: 16.7%; Activity [34]: Non-toxic; Activity [24]: Non-toxic; survival at 15 mg/kg (Acinetobacter baumannii [25]): 40%; Activity (Acinetobacter baumannii [26]): >60%; Activity (Acinetobacter baumannii [27]): Time-dependent-effect; Activity (Acinetobacter baumannii [28]): Active; Activity (Acinetobacter baumannii [29]): Active; Activity (Acinetobacter baumannii [30]): Active
CC[C@H](C)[C@H](NC(=O)[C@H](CCCNC(=N)N)NC(=O)[C@H](CO)NC(=O)[C@@H]1CSSC[C@H](N)C(=O)N[C@@H](Cc2ccccc2)C(=O)N[C@@H](CCCCN)C(=O)N[C@@H](CCCCN)C(=O)N[C@@H](C(C)C)C(=O)N[C@@H](CCCNC(=N)N)C(=O)N[C@@H](CCCCN)C(=O)N[C@@H](CCC(N)=O)C(=O)N[C@@H](CC(C)C)C(=O)NCC(=O)N[C@@H](CCCNC(=N)N)C(=O)N[C@@H](C(C)C)C(=O)N[C@@H](CC(C)C)C(=O)N[C@@H](CCCNC(=N)N)C(=O)N[C@@H](Cc2c[nH]cn2)C(=O)N1)C(=O)N[C@H](C(=O)N[C@H](C(=O)NCC(=O)NCC(=O)N[C@@H](CCCNC(=N)N)C(=O)N[C@@H](CCSC)C(=O)N[C@@H](CCCNC(=N)N)C(=O)N[C@@H](Cc1ccccc1)C(=O)O)C(C)C)[C@@H](C)O (H-CFKKVRKQLGRVLRHCSRITVGGRMRF-OH; disulfide 1-16),9.38,4.69,9.38,9.38,18.8,9.38,37.5,9.38,9.38,< 5,Active,1,Active,Active,Active,20,60,Active,Active,0,Activity (Staphylococcus aureus [6]): inactive; Ratio (Escherichia coli [8]): 1; inhibition (INH) (Acinetobacter baumannii [31]): 10%; Activity (Staphylococcus aureus [32]): 20%; Activity (Staphylococcus aureus [13]): 74.3%; Activity (Staphylococcus aureus [33]): 50%; Activity (Cell membrane [15]): Active; fold change (FC) (Staphylococcus aureus [17]): 32; mortality at 24 h [22]: 0%; mortality at 24 h [23]: 50%; Activity [34]: Non-toxic; Activity [24]: Non-toxic; survival at 15 mg/kg (Acinetobacter baumannii [25]): 40%; Activity (Acinetobacter baumannii [26]): >60%; Activity (Acinetobacter baumannii [27]): Time-dependent-effect; Activity (Acinetobacter baumannii [28]): Active; Activity (Acinetobacter baumannii [29]): Active; Activity (Acinetobacter baumannii [30]): Active
